Where two headings read alike, the source gives them in different places.

Series [1] can be described thus: Pharmacokinetics of scoparone, geniposide and rhein in rat plasma after oral administration of the herbal formula Yin-Chen-Hao-Tang (UPLC-MS/MS). In kind it is in vivo, Male Sprague Dawley rats. How it is done: All samples were subjected to chromatographic separation using the Shimadzu UPLC system with an Acquity UPLC BEH C18 column (1.7 µm, 100 mm × 2.1 mm) (Waters Corp., Milford, MA, USA). Samples were maintained in the autosampler at 4 °C with […] of each being injected into the column. Chromatographic separations were conducted at 35 °C with a flow rate of 0.2 mL/min. The mobile phase was 1 mM ammonium acetate with 0.1% formic acid and methanol. A gradient elution was used from 20% methanol (0–2 min) to 95% methanol (3–11 min) then decreased to 20% methanol at 12 min. The overall run time is 20 mins. MRM transitions were scoparone (m/z 207 → 151), geniposide (m/z 406 → 227), rhein (m/z 283 → 240) and carbamazepine (m/z 237 → 194) for quantitation. Data acquisition was controlled with LabSolutions v. 5.60 SP1 software (Shimadzu, Kyoto, Japan).
Sample preparations were made using the protein precipitation process. A forty-five-microliter aliquot of blank plasma sample was mixed with 5 µL of internal standard solution and 100 μL […] was added. The mixture was vortexed for 5 min and centrifuged at 16,000× g for 10 min at 4 °C. The supernatant layer was then collected and transferred through a 0.22 μm membrane filter (0.22 μm, Millex-GV, Millipore, USA) to 1.5 mL autosampler vials. Finally, 20 µL was used for injection into the UPLC-MS/MS system.
Male Sprague Dawley rats weighing 230 ± 30 g were used for the following pharmacokinetic (PK) study. The rats were housed under controlled environmental conditions with free access to food and drinking water up to 12 h prior to experiments. The experimental protocol was approved by the Institutional Animal Ethics Committee of National Yang-Ming University, Taipei, Taiwan (IACUC1070112). All rats divided into two experimental groups were intragastrically fed pharmaceutical herbal product formula Yin-Chen-Hao Tang suspended in normal saline at 1 g/kg or 3 g/kg corresponding to the clinical daily dose of 9.7 g and 29.2 g in a 60 kg adult. Blood samples were collected via a polyethylene tubing (PE-50) implanted priory in the jugular vein of each rat in a heparin-rinsed vial. An aliquot of 100–120 µL blood was collected at time intervals of 0, 5, 15, 30, 60, 90, 120, 180, 240, 300 and 360 min after oral administration of the herbal product. Each group contained a total of six rats to diminish individual variation. All blood samples were immediately centrifuged as mentioned above (16,000× g for 10 min at 4 °C) and stored at −20 °C until analysis.
The pharmacokinetic parameters were calculated using the pharmacokinetic software WinNonlin Standard Edition, version 1.1 (Scientific Consulting Inc., Apex, NC, USA). The area under the plasma concentration-time curve (AUC), terminal elimination half-life (t1/2) and oral clearance (CL) were estimated using non-compartmental analysis. The maximum plasma concentration (Cmax) and time to reach the maximum concentration (Tmax) was directly applied from the plasma concentration-time curve. Pharmacokinetic parameters of each individual data set were calculated using WinNonlin Standard Edition, version 1.1 (Pharsight Corp., Mountain View, CA, USA). Statistics and graphics were performed with SPSS version 18.0 (SPSS Inc., Chicago, IL, USA) and SigmaPlot 10.0 software (Systat Software Inc., San Jose, CA, USA). All values were expressed as the mean ± standard deviation (S.D.).

Details of series [2]: method as in PMID 21945452. The note with it: oral administration of 50–200 mg of rhein, healthy Chinese subjects; cited from earlier work.
Where [3] appears, read: rat plasma, YCHT 3 g/kg p.o., mean ± S.D., n = 6.
Where [4] appears, read: rat plasma, YCHT 3 g/kg vs 1 g/kg p.o.
[5] abbreviates: male, Sprague Dawley, rat, in vivo.
Where [6] appears, read: male, Sprague Dawley, rat, in vivo, po, 1 g/kg.
The mark [7] stands for this setting: male, Sprague Dawley, rat, in vivo, po, 3 g/kg.

`COC(=O)C1=CO[C@@H](O[C@@H]2O[C@H](CO)[C@@H](O)[C@H](O)[C@H]2O)[C@@H]2C(CO)=CC[C@H]12` [Geniposide, geniposide]: the AUC – broadly, concentration integrated over time – in series [1] (male, Sprague Dawley, in vivo, po, rat plasma, YCHT 1 g/kg p.o., mean ± S.D., n = 6, read-out: AUC (converted)) was 313 ng·h/mL; in series [1] (male, Sprague Dawley, in vivo, po, rat plasma, YCHT 3 g/kg p.o., mean ± S.D., n = 6, read-out: AUC (converted)) it was 1580 ng·h/mL. Further, the Cmax (usually the highest concentration seen after dosing) worked out at 145 ± 251 ng/mL in series [1] (male, Sprague Dawley, in vivo, po, rat plasma, YCHT 1 g/kg p.o., mean ± S.D., n = 6, read-out: Cmax) and 604 ± 256 ng/mL in series [1] (male, Sprague Dawley, in vivo, po, rat plasma, YCHT 3 g/kg p.o., mean ± S.D., n = 6, read-out: Cmax). Moreover, the MRT (commonly the average time that molecules of a dose stay in the body) in series [1] (male, Sprague Dawley, in vivo, po, rat plasma, YCHT 1 g/kg p.o., mean ± S.D., n = 6, read-out: MRT (mean retention time) (converted)) was 1.92 h; in series [1] (male, Sprague Dawley, in vivo, po, rat plasma, YCHT 3 g/kg p.o., mean ± S.D., n = 6, read-out: MRT (mean retention time) (converted)) it was 2.53 h. Besides, the Tmax – broadly, the time from dosing to the highest level – in series [1] (male, Sprague Dawley, in vivo, po, rat plasma, YCHT 1 g/kg p.o., mean ± S.D., n = 6, read-out: Tmax (converted)) is 1.35 h; in series [1] (male, Sprague Dawley, in vivo, po, rat plasma, YCHT 3 g/kg p.o., mean ± S.D., n = 6, read-out: Tmax (converted)) it was 1.35 h. Moreover, the half-life in series [1] (male, Sprague Dawley, in vivo, po, rat plasma, YCHT 1 g/kg p.o., mean ± S.D., n = 6, read-out: t1/2 (elimination half-life)) stood at 1.33 ± 0.3 h; in series [1] (male, Sprague Dawley, in vivo, po, rat plasma, YCHT 3 g/kg p.o., mean ± S.D., n = 6, read-out: t1/2 (elimination half-life)) it was 1.43 ± 0.483 h. The compound also registered a concentration at 180 min in series [1] (male, Sprague Dawley, rat, in vivo, typical plasma sample collected 180 min after oral YCHT 3 g/kg) of 287 ng/mL. Further, the “CL (clearance)” value in series [1] (rat plasma, YCHT 1 g/kg p.o., mean ± S.D., n = 6) is on record as 1403 ± 1018 mL/min/kg; in series [1] (setting [3]), 259.8 ± 109.2 mL/min/kg. Moreover, the AUC/dose in series [1] (setting [3]) is 31.63 ± 10.76. In addition, in series [1] (setting [4]), the “increase of AUC in the 3 g/kg group compared to the 1 g/kg group” value (shortened to “increase of AUC in the 3 g/kg group”) was determined as 5.1 fold. The “ratio of AUC adjusted to the administered dose, high-dose group vs low-dose group” value (shortened to “ratio of AUC adjusted”) in series [1] (setting [4]) is on record as 1.7 times.

In the case of `COc1cc2ccc(=O)oc2cc1OC` [Scoparone, 6,7-dimethoxycoumarin], in series [1] (setting [5]), the “increase of AUC in the 3 g/kg group” value was determined as 7.5 fold and the “ratio of AUC adjusted” value was determined as 2.5 times. In series [1] (setting [6]), the AUC was 15.9 ng·h/mL, the “CL (clearance)” value is recorded as 394.7 ± 209.4 mL/min/kg, the highest concentration (Cmax) is 18 ± 12 ng/mL and the MRT is 0.317 h. For the same compound, in series [1] (setting [6]), the Tmax was 0.233 h and the half-life is 0.433 ± 0.0833 h. Besides, in series [1] (setting [7]), the area under the curve (AUC) was 119 ng·h/mL, the AUC/dose was 2.374 ± 1.126, the “CL (clearance)” value was 131.5 ± 123.6 mL/min/kg and the highest level (Cmax) was 132 ± 137 ng/mL. For the same compound, in series [1] (setting [7]), the mean residence time MRT is 0.85 h, the time to peak (Tmax) was 0.35 h and the half-life amounted to 1.15 ± 0.917 h.

`O=C(O)c1cc(O)c2c(c1)C(=O)c1cccc(O)c1C2=O` [Rhein, rhein]: the “pharmacokinetics, dose linearity” value in series [2] was “Linear pharmacokinetics”. In series [1] (setting [5]), the “increase of AUC in the 3 g/kg group” value worked out at 6.8 fold and the “ratio of AUC adjusted” value amounted to 2.3 times. In series [1] (setting [6]), the AUC was 485 ng·h/mL, the “CL (clearance)” value stood at 3.710 ± 1.366 mL/min/kg, the Cmax was 311 ± 166 ng/mL and the mean residence time MRT was 1.77 h. For the same compound, in series [1] (setting [6]), the time of peak concentration (Tmax) was 0.2 h and the half-life was found to be 2.02 ± 0.767 h. In series [1] (setting [7]), the AUC was 3310 ng·h/mL, the AUC/dose worked out at 66.18 ± 17.09, the “CL (clearance)” value came out at 1.483 ± 0.357 mL/min/kg and the Cmax is 1660 ± 805 ng/mL. Besides, in series [1] (setting [7]), the mean residence time (MRT) was 1.93 h, the time of peak concentration (Tmax) is 0.383 h and the half-life turned out to be 1.73 ± 1.15 h.

The values are drawn from publication PMC6222633, “Preclinical Pharmacokinetics of Scoparone, Geniposide and Rhein in an Herbal Medicine Using a Validated LC-MS/MS Method” (Molecules : A Journal of Synthetic Chemistry and Natural …, 2018).
